The nature of this series: logP(HCOOH) reported with HPLC/MS.
The mark [1] stands for this setting: method [b]: LC-MS at pH 2.7, 0.1% formic acid in water and acetonitrile, linear gradient 10% to 95% acetonitrile.
The mark [2] stands for this setting: method [b]: LC-MS, pH 2.7 with 0.1% formic acid in water and acetonitrile (0.1% formic acid), linear gradient 10% to 95% acetonitrile.
[3] abbreviates: method [a]: HPLC on reversed phase columns, pH 2.3 with 0.1% phosphoric acid and acetonitrile as eluent.
Setting [4] is: method [b]: LC-MS at pH 2.7 with 0.1% formic acid in water and acetonitrile (0.1% formic acid), linear gradient 10% to 95% acetonitrile.
Where [5] appears, read: HCOOH (formic acid), logP(HCOOH), HPLC/MS.
[6] abbreviates: reversed phase HPLC column, pH 2.7, log p, method [b]: LC-MS at pH 2.7, 0.1% formic acid in water and acetonitrile, linear gradient 10% to 95% acetonitrile.

Structures are written as SMILES.

Regarding `Cn1nnnc1C(=NOCc1nc(C#CCC2CCCCC2)ccc1F)c1ccccc1` [Example 97], the log p under setting [1] is 5.28^[b]. For the compound `Cn1nnnc1C(=NOCc1nc(C#CC2CCCCC2)sc1Cl)c1ccccc1` [Example 120], the log p under setting [1] was 5.75^[b]. Regarding `Cn1nnnc1C(=NOCc1cccc(C#CCCO)n1)c1ccccc1` [Example 253], under setting [2], the log p is 2.23^[b].

In the case of `CCCC#Cc1nc(CON=C(c2ccccc2)c2nnnn2C)c(C)s1` [Example 182], the log p under setting [2] is 4.24^[b].

Consider `CN(C)C(=O)c1cccc(CON=C(c2ccccc2)c2nnnn2C)n1` [Example 77], for which, under setting [1], the log p is 2.04^[b]. Take `Cn1nnnc1C(=NOCc1cccc(NCC2CC2(F)F)n1)c1ccccc1` (centres unmarked) [Example 179]: the log p under setting [3] is 2.17^[a].

For `Cn1nnnc1C(=NOCc1cccc(NCCCCC2CCCCC2)n1)c1ccccc1` [Example 180], under setting [3], the log p was 3.55^[a]. In the case of `Cn1nnnc1C(=NOCc1cccc(NCC2CC2)n1)c1cccc(F)c1` [Example 290], the log p under setting [4] is 1.98^[b].

For the compound `Cn1nnnc1C(=NOCc1cccc(C#CC2=CCCCC2)n1)c1ccccc1` [Example 124], the log p under setting [1] was 4.34^[b].

Take `Cn1nnnc1C(=NOCc1csc(C#CCCCc2ccccc2)n1)c1cccc(F)c1` [Example 150]: under setting [2], the log p was 4.89^[b]. With `CC(C)C(C)NC(=O)c1cccc(CON=C(c2ccccc2)c2nnnn2C)n1` (centres unmarked) [Example 75], under setting [1], the log p was 3.44^[b].

For `CCCCCCNc1nc(CON=C(c2cccc(SC)c2)c2nnnn2C)cs1` [Example 297], for the setting “reversed phase HPLC column, pH 2.7, log p, method [b]: LC-MS at pH 2.7 with 0.1% formic acid in water and acetonitrile (0.1% formic acid), linear gradient 10% to 95% acetonitrile”, the chromatographic logP worked out at 3.92. Take `CCCCc1ccc(C#Cc2nc(CON=C(c3ccccc3)c3nnnn3C)cs2)cc1` [Example 202]: under setting [2], the log p was 5.82^[b]. `COc1ccc(CON=C(c2ccccc2)c2nnnn2C)nc1Br` [Example 125, N-[(6-bromo-5-methoxypyridin-2-yl)methoxy]-1-(1-methyl-1H-tetrazol-5-yl)-1-phenylmethanimine]: the chromatographic logP is, setting by setting: under setting [5], 3.13; under setting [6], 3.13.

Take `CSc1cccc(C(=NOCc2csc(NCCCc3ccccc3)n2)c2nnnn2C)c1` [Example 305]: under setting [4], the log p is 3.71^[b]. In the case of `CCc1ccc(C#Cc2nc(CON=C(c3cccc(F)c3)c3nnnn3C)cs2)cc1` [Example 293], the log p under setting [4] was 5^[b]. For the compound `CCCC#Cc1nc(CON=C(c2ccccc2)c2nnnn2C)cs1` [Example 261], the log p under setting [3] was 3.89^[a]. For `Cn1nnnc1C(=NOCc1csc(C#C[Si](C)(C)C)n1)c1ccccc1` [Example 138], the log p under setting [3] was 4.59^[a]. Under “logP(HCOOH), HPLC/MS”, `CON(C)C(=O)c1cccc(SC)c1` [N-methoxy-N-methyl-3-(methylsulfanyl)benzamide] registered a chromatographic logP of 1.89. On to `CSc1cccc(C(=NOCc2csc(Br)n2)c2nnnn2C)c1` [Example 299], for which the log p under setting [4] is 3.55^[b]. `Cc1cccc(C2OCCO2)n1` [2-(1,3-dioxolan-2-yl)-6-methylpyridine] yielded a chromatographic logP under setting [5] of 1.21. Consider `COC(C)(C)C#Cc1cccc(CON=C(c2ccccc2)c2nnnn2C)n1` [Example 240], for which the log p under setting [2] was 3.42^[b]. For `Cn1nnnc1C(=NOCc1cccc(NCC2CCC2)n1)c1ccccc1` [Example 178], the log p under setting [3] is 1.98^[a]. In the case of `CCCCOC(=O)NCc1cccc(CON=C(c2ccccc2)c2nnnn2C)n1` [Example 63], under setting [1], the log p was 3.19^[b]. In the case of `Cn1nnnc1C(=NOCc1cccc(C#Cc2ccsc2)n1)c1ccccc1` [Example 207], the log p under setting [2] is 3.83^[b]. Compound `CC(C)(C)OC(=O)Nc1cccc(Br)n1` [tert-butyl (6-bromopyridin-2-yl)carbamate] came in with a chromatographic logP (logP(HCOOH), HPLC/MS) of 4.11.

Take `COc1ccccc1C#Cc1cccc(CON=C(c2ccccc2)c2nnnn2C)n1` [Example 222]: the log p under setting [2] was 3.89^[b].

`Cc1nnnn1C(=NOCc1csc(C#CCCCc2ccccc2)n1)c1ccccc1` [Example 166]: under setting [2], the log p is 4.84^[b]. As for `Cn1nnnc1C(=NOCc1cccc(CN)n1)c1ccccc1` [Example 52, 1-{6-[({[(1-methyl-1H-tetrazol-5-yl)(phenyl)methylene]amino}oxy)methyl]pyridin-2-yl}methanamine], the chromatographic logP by setting is: (HPLC, logP(HCOOH), HPLC/MS) 1.23; under setting [6], 1.23.

For `CCCCCCN(C=O)c1cccc(C)[n+]1[O-]` [N-hexyl-N-(6-methyl-1-oxidopyridin-2-yl)formamide], under setting [5], the chromatographic logP was determined as 1.82. With `Cn1nnnc1C(=NOCc1csc(Br)n1)c1cccc(F)c1` [Example 146], the log p under setting [2] was 3.23^[b]. `Cn1nnnc1C(=NOCc1cccc(C#Cc2cccc(C#N)c2)n1)c1ccccc1` [Example 225]: under setting [2], the log p was 3.69^[b]. As for `CCCCSC(=O)Nc1cccc(CON=C(c2ccccc2)c2nnnn2C)n1` [S-butyl {6-[({[(1-methyl-1H-tetrazol-5-yl)(phenyl)methylene]amino}oxy)methyl]pyridin-2-yl}carbamothioate], under setting [5], the chromatographic logP is 4.25.

Take `COc1ccc(CON=C(c2ccccc2)c2nnnn2C)nc1C#CC1CCCCC1` [Example 132]: the log p under setting [2] is 4.44^[b]. Consider `Cn1nnnc1C(=NOCc1csc(C#Cc2ccc(F)cc2)n1)c1ccccc1` [Example 262], for which, under setting [2], the log p is 4.16^[b]. As to `Cn1nnnc1C(=NOCc1cccc(NCCC2CC(F)(F)C2(F)F)n1)c1ccccc1` (centres unmarked) [Example 143], the log p under setting [3] was 2.51^[a]. As to `CCOc1ccc(C#Cc2nc(CON=C(c3cccc(F)c3)c3nnnn3C)cs2)cc1` [Example 294], under setting [4], the log p was 4.62^[b]. For `Cn1nnnc1C(=NOCc1csc(C#CCCCCl)n1)c1ccccc1` [Example 193], the log p under setting [2] is 3.8^[b].

In the case of `CSc1cccc(C(=NOCc2cccc(NCCC3CCCCC3)n2)c2nnnn2C)c1` [Example 298], under setting [4], the log p was 3.17^[b]. As for `Cn1nnnc1C(=NOCc1cccc(C#Cc2ccc(C#N)cc2)n1)c1ccccc1` [Example 224], the log p under setting [2] was 3.69^[b].

Regarding `Cn1nnnc1C(=NOCc1cccc(NOCc2ccccc2)n1)c1ccccc1` [Example 285], the log p under setting [4] is 3.14^[b]. Take `Cn1nnnc1C(=NOCc1cccc(C#Cc2ccc(F)cc2)n1)c1ccccc1` [Example 223]: the log p under setting [2] was 4.11^[b]. For the compound `Cn1nnnc1C(=NOCc1cccc(C#CCCCC#N)n1)c1ccccc1` [Example 239], under setting [2], the log p was 2.9^[b]. As for `Cn1nnnc1C(=NOCc1cccc(NCCCC2CCCCC2)n1)c1ccccc1` [Example 200], the log p under setting [3] is 3.17^[a]. On to `Cn1nnnc1C(=NOCc1nc(C#CCCCc2ccccc2)sc1Cl)c1ccccc1` [Example 123], for which the log p under setting [1] is 5.56^[b]. Turning to `Cn1nnnc1C(=NOCc1cccc(C#Cc2cccs2)n1)c1ccccc1` [Example 206], the log p under setting [2] is 3.94^[b].

As to `Cn1nnnc1C(=NOCc1cccc(C#Cc2ccc(C(C)(C)C)cc2)n1)c1ccccc1` [Example 245], the log p under setting [2] was 5.44^[b]. Turning to `Cn1nnnc1C(=NOCc1cccc(NCCOC2CCCCC2)n1)c1ccccc1` [Example 203], under setting [2], the log p is 2.35^[b]. Consider `CCCC(C)C#Cc1nc(CON=C(c2ccccc2)c2nnnn2C)c(C)s1` (centres unmarked) [Example 188], for which, under setting [2], the log p is 5.06^[b].

With `Cn1nnnc1C(=NOCc1cccc(C=NN=CC2CC=CCC2)n1)c1ccccc1` (centres unmarked) [Example 201], the log p under setting [3] was 4.16^[a].

With `COC(=O)c1cccc(CON=C(c2ccccc2)n2nnnc2C)n1` [Example 14], under setting [1], the log p is 2.47^[b].

Source of the values: patent US8466176B2 (priority 2008, dated 2013).
